{"source": "paper PMC6017844", "about": "“4-Thiazolidinone Derivatives as MMP Inhibitors in Tissue Damage: Synthesis, Biological Evaluation and Docking Studies” (Molecules : A Journal of Synthetic Chemistry and Natural …, 2018)", "key": {"[1]": {"target": "T1, human recombinant MMP-9 (Homo sapiens, UniProt P14780)", "T1 construct": "using 10 nM of proteolytic enzyme (catalytic domains of MMP-9 (Biomol, Inc.)); purchased Biomol, Inc", "T1 sequence (P14780 107-444 limits assumed)": "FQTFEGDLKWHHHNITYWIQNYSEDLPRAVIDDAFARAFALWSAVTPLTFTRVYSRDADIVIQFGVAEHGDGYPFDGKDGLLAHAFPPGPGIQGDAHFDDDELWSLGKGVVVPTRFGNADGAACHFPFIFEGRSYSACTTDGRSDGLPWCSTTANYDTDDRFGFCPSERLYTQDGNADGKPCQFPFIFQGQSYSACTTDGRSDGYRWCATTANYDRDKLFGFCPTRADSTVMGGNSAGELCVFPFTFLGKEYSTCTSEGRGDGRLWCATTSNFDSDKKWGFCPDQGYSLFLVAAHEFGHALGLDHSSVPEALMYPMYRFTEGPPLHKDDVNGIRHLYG", "test": "MMP-9 fluorimetric assay", "type": "biochemical", "settings": "catalytic domain of MMP-9 10 nM, substrate 350 nM, 25 °C, pH 7; mean ± SD (n = 3); n.a. = not active; read-out: IC50 Value", "procedure": "The synthesized compounds 13–19, 22 and 23 were tested for their in vitro ability to inhibit human recombinant MMP-9. Table 2 reports the results of this inhibition assay, expressed as IC50 (µM). […] We used as positive control a potent MMPs inhibitor, NNGH (N-isobutyl-N-(4-methoxy-phenylsulfonyl)glycylhydroxamic acid).\nThe compounds were evaluated for their ability to inhibit the hydrolysis of fluorescence-quenched peptide substrate Mca-Pro-Leu-Gly-Leu-Dpa-Ala-Arg-NH2 (Biomol, Inc., Enzo Life Sciences, Inc., Farmingdale, NY, USA). The MMP-9 assays were performed in 50 mM HEPES buffer containing 5 mM CaCl2, 0.1 mM ZnCl2, 0.05% Brij-35, at pH 7, using 10 nM of proteolytic enzyme (catalytic domains of MMP-9 (Biomol, Inc.) and 350 nM of peptide substrate. The enzyme was incubated at 25 °C with increasing concentration (0.0004, 0.004, 0.04, 0.4, 4, 40, 400 µM) of compounds, and the fluorescence (excitation max 328 nm; emission max 393 nm) was measured for 3 min after the addition of the substrate using a Victor Wallac 1420 Multilabel Counters fluorimeter (Perkin Elmer, Waltham, MA, USA). The fluorescence values of the samples were plotted against the time with a linear regression fit, using the Origin software, version 7 (Origin Lab Corporation, Northampton, MA, USA). The slope of the line value for each inhibitor concentrations was obtained where an increase of the slope corresponds to a decrease of inhibitory activity. Subsequently, the IC50 values were obtained from a non-linear regression procedure (log inhibitor vs. response) with a variables slope of the regression line (Y) and the molar inhibitor concentration (X), using the software Origin®7 (Origin Lab Corporation). The IC50 value was obtained from the equation Y = P1/(1 + X/P2). NNGH (N-Isobutyl-N-(4-methoxyphenylsulfonyl)glycylhydroxamic acid) a potent MMPs inhibitor was used as a positive control."}, "[2]": {"test": "Oxygen Radical Absorbance Capacity (ORAC) assay", "settings": "fluorescein 10 nM, AAPH 100 mM, 37 °C, pH 7.0; mean ± SD (n = 3); Trolox = 1 ORAC Units", "text": "Free radicals and ROS are highly reactive molecules that are generated by normal cellular processes. They react with cellular components, damaging DNA, carbohydrates, proteins, and lipids causing cellular and tissue injury. Although organisms have developed complex antioxidant systems to protect themselves from oxidative substances, an excess of ROS production can lead to inflammation and several disease state. ORAC test measures both lipophilic and hydrophilic antioxidant capacity and determines the ability of antioxidants to protect proteins from damage caused by free radicals. ORAC assay has been widely accepted as a standard in vitro to measure the antioxidant activity of synthetic compounds, measuring their capacity to transfer hydrogen atom. The assay measures the loss of fluorescence over time due to peroxyl-radical formation by the breakdown of 2,2′-azobis-2-methyl-propanimidamide dihydrochloride (AAPH). 6-Hydroxy-2,5,7,8-tetramethylchroman-2-carboxylic acid (Trolox), a water soluble vitamin E analog, is a positive control that inhibits the fluorescein decay in a dose dependent manner. The ORAC assay is a kinetic assay measuring fluorescein decay and antioxidant protection over time.\nThe ORAC assay was performed as previously reported by Cao et al.. The measurements were carried out on a Wallac 1420 Victor^3 96-well plate reader (EG & Wallac, Turku, Finland) with fluorescence filter ([…]). Fluorescein (10 nM) was the fluorescence probe and target molecule for free radical attack from AAPH (100 mM) as peroxyl radical generator. The reaction was conducted at 37 °C at pH 7.0 with Trolox (12.5 μM) as control standard and phosphate buffer as blank. Compounds 13–19 and 22–23 were appropriately diluted with DMSO/buffer (1:10) prior to analysis. The fluorescein fluorescence was recorded every 2 min after addition of AAPH. All measurements were expressed relative to the initial reading. One blank, one standard, and a maximum of 10 samples were analyzed at the same time. Each measure was repeated at least three times. The ORAC value refers to the net protection area under the quenching curve of fluorescein in the presence of an antioxidant. The final results (ORAC value) were calculated and expressed using Trolox equivalents (TE) per gram of extract (TE/g):ORAC value (μM) = K(S sample − S blank)/(S Trolox − S blank)(1) where K is a sample dilution factor, S is the area under the fluorescence decay curve of the sample, Trolox or blank. This area was calculated with Origin®7 (OriginLab Corporation, Northampton, MA, USA)."}}, "data": [{"compound": "CC(C(=O)NN1C(=O)CSC1c1ccccc1)c1nsc2ccccc12", "note": "(stereo not shown) (hydrate or solvate) [Compound 13, 2-(1,2-Benzothiazol-3-yl)-N-(4-oxo-2-phenyl-1,3-thiazolidin-3-yl)propanamide]", "values": [{"measurement": "melting point", "result": "239 to 240", "unit": "°C"}]}, {"compound": "COc1ccc(C2SCC(=O)N2NC(=O)C(C)c2nsc3ccccc23)cc1", "note": "(stereo not shown) (hydrate or solvate) [Compound 15, 2-(1,2-Benzothiazol-3-yl)-N-[2-(4-methoxyphenyl)-4-oxo-1,3-thiazolidin-3-yl]propanamide]", "values": [{"measurement": "melting point", "result": 170, "unit": "°C"}]}, {"compound": "CC(C(=O)NN1C(=O)CSC1c1ccc(F)cc1)c1nsc2ccccc12", "note": "(stereo not shown) (hydrate or solvate) [Compound 16, 2-(1,2-Benzothiazol-3-yl)-N-[2-(4-fluorophenyl)-4-oxo-1,3-thiazolidin-3-yl]propanamide]", "values": [{"measurement": "melting point", "result": "185 to 186", "unit": "°C"}]}, {"compound": "CC(C(=O)NN1C(=O)CSC1c1ccc(C(F)(F)F)cc1)c1nsc2ccccc12", "note": "(stereo not shown) (hydrate or solvate) [Compound 17, 2-(1,2-Benzothiazol-3-yl)-N-{4-oxo-2-[4-(trifluoromethyl)phenyl]-1,3-thiazolidin-3-yl}propanamide]", "values": [{"measurement": "melting point", "result": "145 to 147", "unit": "°C"}]}, {"compound": "CC(C(=O)NN1C(=O)CSC1c1ccc(Cl)cc1)c1nsc2ccccc12", "note": "(stereo not shown) (hydrate or solvate) [Compound 18, 2-(1,2-Benzothiazol-3-yl)-N-[2-(4-chlorophenyl)-4-oxo-1,3-thiazolidin-3-yl]propanamide]", "values": [{"measurement": "melting point", "result": "187 to 188", "unit": "°C"}]}, {"compound": "CC(C(=O)NN1C(=O)CSC1c1ccccc1)c1nsc2ccccc12", "note": "(stereo not shown) [Compound 13, 2-(1,2-Benzothiazol-3-yl)-N-(4-oxo-2-phenyl-1,3-thiazolidin-3-yl)propanamide]", "values": [{"measurement": "IC50", "setting": "[1]", "result": "7.99 ± 0.65", "unit": "µM"}, {"measurement": "ORAC UNITs", "setting": "[2]", "result": "0.61 ± 0.14 ORAC unit (μmol of Trolox equi"}]}, {"compound": "Cc1ccc(C2SCC(=O)N2NC(=O)C(C)c2nsc3ccccc23)cc1", "note": "(stereo not shown) [Compound 14, 2-(1,2-Benzothiazol-3-yl)-N-[2-(4-methylphenyl)-4-oxo-1,3-thiazolidin-3-yl]propanamide]", "values": [{"measurement": "IC50", "setting": "[1]", "result": "9.01 ± 0.45", "unit": "µM"}, {"measurement": "ORAC UNITs", "setting": "[2]", "result": "0.40 ± 0.06 ORAC unit (μmol of Trolox equi"}]}, {"compound": "COc1ccc(C2SCC(=O)N2NC(=O)C(C)c2nsc3ccccc23)cc1", "note": "(stereo not shown) [Compound 15, 2-(1,2-Benzothiazol-3-yl)-N-[2-(4-methoxyphenyl)-4-oxo-1,3-thiazolidin-3-yl]propanamide]", "values": [{"measurement": "IC50", "setting": "[1]", "result": "6.82 ± 0.95", "unit": "µM"}, {"measurement": "ORAC UNITs", "setting": "[2]", "result": "0.66 ± 0.12 ORAC unit (μmol of Trolox equi"}]}, {"compound": "CC(C(=O)NN1C(=O)CSC1c1ccc(F)cc1)c1nsc2ccccc12", "note": "(stereo not shown) [Compound 16, 2-(1,2-Benzothiazol-3-yl)-N-[2-(4-fluorophenyl)-4-oxo-1,3-thiazolidin-3-yl]propanamide]", "values": [{"measurement": "IC50", "setting": "[1]", "result": "17.2 ± 1.92", "unit": "µM"}, {"measurement": "ORAC UNITs", "setting": "[2]", "result": "0.46 ± 0.20 ORAC unit (μmol of Trolox equi"}]}, {"compound": "CC(C(=O)NN1C(=O)CSC1c1ccc(C(F)(F)F)cc1)c1nsc2ccccc12", "note": "(stereo not shown) [Compound 17, 2-(1,2-Benzothiazol-3-yl)-N-{4-oxo-2-[4-(trifluoromethyl)phenyl]-1,3-thiazolidin-3-yl}propanamide]", "values": [{"measurement": "ORAC UNITs", "setting": "[2]", "result": "0.27 ± 0.06 ORAC unit (μmol of Trolox equi"}]}, {"compound": "CC(C(=O)NN1C(=O)CSC1c1ccc(Cl)cc1)c1nsc2ccccc12", "note": "(stereo not shown) [Compound 18, 2-(1,2-Benzothiazol-3-yl)-N-[2-(4-chlorophenyl)-4-oxo-1,3-thiazolidin-3-yl]propanamide]", "values": [{"measurement": "IC50", "setting": "[1]", "result": "16.1 ± 1.23", "unit": "µM"}, {"measurement": "ORAC UNITs", "setting": "[2]", "result": "0.47 ± 0.23 ORAC unit (μmol of Trolox equi"}]}, {"compound": "CC(C(=O)NN1C(=O)CSC1c1ccc([N+](=O)[O-])cc1)c1nsc2ccccc12", "note": "(stereo not shown) [Compound 19, 2-(1,2-Benzothiazol-3-yl)-N-[2-(4-nitrophenyl)-4-oxo-1,3-thiazolidin-3-yl]propanamide]", "values": [{"measurement": "IC50", "setting": "[1]", "result": "22.1 ± 1.42", "unit": "µM"}, {"measurement": "ORAC UNITs", "setting": "[2]", "result": "0.40 ± 0.17 ORAC unit (μmol of Trolox equi"}]}, {"compound": "COc1ccc(S(=O)(=O)N(CC(=O)NO)CC(C)C)cc1", "note": "[NNGH, N-isobutyl-N-(4-methoxy-phenylsulfonyl)glycylhydroxamic acid, reference compound]", "values": [{"measurement": "IC50", "setting": "[1]", "result": "0.0065 ± 0.00025", "unit": "µM"}]}]}
